{"source": "patent US7029703B2", "about": "“Composition for promoting healthy bone structure” (Metagenics, Inc., priority 1999, dated 2006)", "origin": "cited, not measured here", "key": {"[1]": {"details": "postmenopausal osteoporosis"}, "[2]": {"details": "600 mg ipriflavone/day along with 1 gram calcium"}, "[3]": {"details": "in animals and in humans"}, "[4]": {"details": "clinical trials; consumption data of up to 2 years"}, "osteoblast-like cells": {"tested_on": "osteoblast-like cells", "details": "in vitro"}}, "data": [{"smiles": "O=C([O-])[O-].[Ca+2]", "note": "[calcium carbonate]", "values": [{"measurement": "rate of bone loss", "setting": "[1]", "value": "reduced the rate of bone loss by about half"}]}, {"smiles": "CC(C)Oc1ccc2c(=O)c(-c3ccccc3)coc2c1", "note": "[ipriflavone, 7-isopropoxyisoflavone]", "values": [{"measurement": "Urinary hydroxyproline/creatinine (HOP/Cr)", "setting": "[2]", "value": "reduced"}, {"measurement": "serum osteocalcin (BGP)", "setting": "[2]", "value": "reduced"}, {"measurement": "increase in BMD at the distal radius (DPA)", "setting": "[2]; 28 osteoporotic elderly women, P<0.05", "value": 6, "unit": "%"}, {"measurement": "Bone pain", "setting": "during the 1200/600 mg sequence of ipriflavone", "value": "significantly decreased"}, {"measurement": "Serum alkaline phosphatase (ALP) decrease", "setting": "following the 1200/600 mg ipriflavone sequence, P<0.01", "value": 33, "unit": "%"}, {"measurement": "hydroxy proline/creatinine (HOP/Cr) decrease", "setting": "following the 1200/600 mg ipriflavone sequence, P<0.05", "value": 24.1, "unit": "%"}, {"measurement": "estrogenic activity", "setting": "[3]", "value": "devoid of any estrogenic activity"}, {"measurement": "frequency of adverse reactions", "setting": "[4]", "value": "equal to that observed during administration of a placebo"}, {"measurement": "alkaline phosphatase activity", "setting": "osteoblast-like cells", "value": "increases"}, {"measurement": "collagen synthesis", "setting": "osteoblast-like cells", "value": "increases"}]}]}
